From patent publication US4921850A, “3-propenylcephem derivative” (Eisai Co., Ltd., priority 1986, dated 1990)
Converted amounts (≈) assume the structure as drawn. Where two headings read alike, the source gives them in different places.

Legend:
Assay in all cases: Anti-bacterial activity (MIC), agar dilution
Type in all cases: cell-based
Escher. coli NIHJ = tested on: Escher. coli NIHJ
Method: (§1) MIC (μg/ml) were determined by an agar dilution method [Chemotherapy (Japan), 29, 76-79, 1981]. Overnight cultures of the bacterial strains in Mueller-Hinton broth were diluted to final concentration of about 10^6 CFU/ml, and 5 μl of each bacterial suspension was spotted onto Mueller-Hinton agar plates that contained twofold serial dilutions of antibiotics. MICs were measured after incubation for 18 hours at 37° C.

Kleb. pneumoniae EK-6 = conditions: Kleb. pneumoniae EK-6, agar dilution, about 10^6 CFU/ml, 18 hours, 37° C.
Method: as §1

[1] = tested on: Morganella morganii EP-14; conditions: 37° C.
Method: as §1

Pseud. aeruginosa EP-01 = tested on: Pseud. aeruginosa EP-01
Method: as §1

Ser. marcescens ES-75 = tested on: Ser. marcescens ES-75
Method: as §1

Staph. aureus 209-P = tested on: Staph. aureus 209-P
Method: as §1

[2] = Escherichia coli, 18 h, Escher. coli NIHJ, agar dilution, about 10^6 CFU/ml, 18 hours, 37° C., read-out: MIC
[3] = Pseudomonas aeruginosa, EP01, 18 h, Pseud. aeruginosa EP-01, agar dilution, about 10^6 CFU/ml, 18 hours, 37° C., read-out: MIC
[4] = Ser. marcescens ES-75, agar dilution, about 10^6 CFU/ml, 18 hours, 37° C.
[5] = Staph. aureus 209-P, agar dilution, about 10^6 CFU/ml, 18 hours, 37° C.
[6] = Escher. coli NIHJ, agar dilution, about 10^6 CFU/ml, 18 hours, 37° C.
[7] = Pseud. aeruginosa EP-01, agar dilution, about 10^6 CFU/ml, 18 hours, 37° C.
[8] = Klebsiella pneumoniae, EK6, 18 h, read-out: MIC
[9] = Morganella morganii, EP14, 18 h, about 10^6 CFU/ml, read-out: MIC
[10] = Serratia marcescens, ES75, 18 h, Ser. marcescens ES-75, agar dilution, about 10^6 CFU/ml, 18 hours, 37° C., read-out: MIC
[11] = Staphylococcus aureus, 209P, 18 h, Staph. aureus 209-P, agar dilution, about 10^6 CFU/ml, 18 hours, 37° C., read-out: MIC
[12] = Serratia marcescens, ES75, 18 h
[13] = Staphylococcus aureus, 209P, 18 h

NC(=O)C1CC[N+](C/C=C/C2=C(C(=O)[O-])N3C(=O)[C@@H](NC(=O)/C(=N\OCF)c4nsc(N)n4)[C@H]3SC2)(CCO)CC1 (single isomer, unassigned) [Example 2-2, 7β-[2-(5-Amino-1,2,4-thiadiazol-3-yl)-(Z)-2-fluoromethoxyiminoacetamido]-3-[(E)-3-[1-(2-hydroxyethyl)-4-carbamoyl-1-piperidinio]-1-propen-1-yl]-3-cephem-4-carboxylate]
MIC (Escher. coli NIHJ; [2]): ≤ 0.025 µg/mL
MIC (Kleb. pneumoniae EK-6): ≤ 0.025 µg/mL
MIC ([1]; about 10^6 CFU/ml, 18 hours): ≤ 0.025 µg/mL
MIC (Pseud. aeruginosa EP-01; [3]): 1.56 µg/mL (≈ 2.55 µM)
MIC (Ser. marcescens ES-75; [4]): ≤ 0.025 µg/mL
MIC (Staph. aureus 209-P; [5]): 0.4 µg/mL (≈ 0.653 µM)

C[N+]1(C/C=C/C2=C(C(=O)[O-])N3C(=O)[C@@H](NC(=O)/C(=N\OCF)c4nsc(N)n4)[C@H]3SC2)C[C@H](O)C[C@@H]1CO (single isomer, unassigned) [Example 6-2, 7β-[2-(5-Amino-1,2,4-thiadiazol-3-yl)-(Z)-2-fluoromethoxyiminoacetamido]-3-[(E)-3-(4R-hydroxy-2R-hydroxymethyl-1-methyl-1-pyrrolidinio)-1-propen-1-yl]-3-cephem-4-carboxylate]
MIC (Escher. coli NIHJ; [6]): ≤ 0.025 µg/mL
MIC (Kleb. pneumoniae EK-6): ≤ 0.025 µg/mL
MIC ([1]; about 10^6 CFU/ml, 18 hours): ≤ 0.025 µg/mL
MIC (Pseud. aeruginosa EP-01; [7]): 0.8 µg/mL (≈ 1.4 µM)
MIC (Ser. marcescens ES-75; [4]): ≤ 0.025 µg/mL
MIC (Staph. aureus 209-P; [5]): 0.1 µg/mL (≈ 0.175 µM)

Nc1nc(/C(=N/OCF)C(=O)N[C@@H]2C(=O)N3C(C(=O)[O-])=C(/C=C/C[N+]4(CCO)C[C@H](O)C[C@H]4CO)CS[C@H]23)ns1 (single isomer, unassigned) [Example 7-1, 7β-[2-(5-Amino-1,2,4-thiadiazol-3-yl)-(Z)-2-fluoromethoxyiminoacetamido]-3-[(E)-3-[4R-hydroxy-1-(2-hydroxyethyl)-2S-hydroxymethyl-1-pyrrolidinio]-1-propen-1-yl]-3-cephem-4-carboxylate]
MIC (Escher. coli NIHJ; [2]): ≤ 0.025 µg/mL
MIC (Kleb. pneumoniae EK-6; [8]): ≤ 0.025 µg/mL
MIC [1, 9]: ≤ 0.025 µg/mL
MIC (Pseud. aeruginosa EP-01; [3]): 0.8 µg/mL (≈ 1.33 µM)
MIC (Ser. marcescens ES-75; [10]): ≤ 0.025 µg/mL
MIC (Staph. aureus 209-P; [11]): 0.2 µg/mL (≈ 0.332 µM)

CC(C(N)=O)[N+]1(C/C=C/C2=C(C(=O)[O-])N3C(=O)[C@@H](NC(=O)/C(=N\OCF)c4nsc(N)n4)[C@H]3SC2)CCCC1 (single isomer, unassigned) [Example 13-2]
MIC (Escher. coli NIHJ; [6]): ≤ 0.025 µg/mL
MIC (Kleb. pneumoniae EK-6): ≤ 0.025 µg/mL
MIC ([1]; about 10^6 CFU/ml, 18 hours): 0.05 µg/mL (≈ 0.0858 µM)
MIC (Pseud. aeruginosa EP-01; [7]): 1.56 µg/mL (≈ 2.68 µM)
MIC (Ser. marcescens ES-75; [4]): 0.05 µg/mL (≈ 0.0858 µM)
MIC (Staph. aureus 209-P; [5]): 0.2 µg/mL (≈ 0.343 µM)

Nc1nc(/C(=N/OCF)C(=O)N[C@@H]2C(=O)N3C(C(=O)[O-])=C(/C=C/C[N+]4(CC(O)CO)CCCC4)CS[C@H]23)ns1 (single isomer, unassigned) [Example 23-1]
MIC (Escher. coli NIHJ; [2]): ≤ 0.025 µg/mL
MIC (Kleb. pneumoniae EK-6; [8]): ≤ 0.025 µg/mL
MIC [1, 9]: ≤ 0.025 µg/mL
MIC (Pseud. aeruginosa EP-01; [3]): 1.56 µg/mL (≈ 2.66 µM)
MIC (Ser. marcescens ES-75; [10]): ≤ 0.025 µg/mL
MIC (Staph. aureus 209-P; [11]): 0.2 µg/mL (≈ 0.342 µM)

Nc1nc(/C(=N/OCF)C(=O)N[C@@H]2C(=O)N3C(C(=O)[O-])=C(/C=C/C[N+]4(CC(O)CO)CCCC4)CS[C@H]23)ns1 (single isomer, unassigned) [Example 23-2]
MIC (Escher. coli NIHJ; [6]): 0.05 µg/mL (≈ 0.0854 µM)
MIC (Kleb. pneumoniae EK-6): ≤ 0.025 µg/mL
MIC ([1]; about 10^6 CFU/ml, 18 hours): 0.05 µg/mL (≈ 0.0854 µM)
MIC (Pseud. aeruginosa EP-01; [7]): 1.56 µg/mL (≈ 2.66 µM)
MIC (Ser. marcescens ES-75; [4]): ≤ 0.025 µg/mL
MIC (Staph. aureus 209-P; [5]): 0.2 µg/mL (≈ 0.342 µM)

CN1CCC[N+]1(C)C/C=C/C1=C(C(=O)[O-])N2C(=O)[C@@H](NC(=O)/C(=N\OCF)c3nsc(N)n3)[C@H]2SC1 (single isomer, unassigned) [Example 122-A, 7β-[2-(5-Amino-1,2,4-thiadiazol-3-yl)-(Z)-2-fluoromethoxyiminoacetamido]-3-[(E)-3-(1,2-dimethyl-1-pyrazolidinio)-1-propen-1-yl]-3-cephem-4-carboxylate]
MIC (Escher. coli NIHJ; [2]): ≤ 0.025 µg/mL
MIC (Kleb. pneumoniae EK-6; [8]): ≤ 0.025 µg/mL
MIC [1, 9]: ≤ 0.025 µg/mL
MIC (Pseud. aeruginosa EP-01; [3]): 0.8 µg/mL (≈ 1.48 µM)
MIC (Ser. marcescens ES-75; [10]): ≤ 0.025 µg/mL
MIC (Staph. aureus 209-P; [11]): 0.2 µg/mL (≈ 0.37 µM)

CN1CCC[N+]1(C)C/C=C/C1=C(C(=O)[O-])N2C(=O)[C@@H](NC(=O)/C(=N\OCF)c3nsc(N)n3)[C@H]2SC1 (single isomer, unassigned) [Example 122-B, 7β-[2-(5-Amino-1,2,4-thiadiazol-3-yl)-(Z)-2-fluoromethoxyiminoacetamido]-3-[(E)-3-(1,2-dimethyl-1-pyrazolidinio)-1-propen-1-yl]-3-cephem-4-carboxylate]
MIC (Escher. coli NIHJ; [6]): ≤ 0.025 µg/mL
MIC (Kleb. pneumoniae EK-6): ≤ 0.025 µg/mL
MIC ([1]; about 10^6 CFU/ml, 18 hours): ≤ 0.025 µg/mL
MIC (Pseud. aeruginosa EP-01; [7]): 0.8 µg/mL (≈ 1.48 µM)
MIC (Ser. marcescens ES-75; [4]): 0.05 µg/mL (≈ 0.0925 µM)
MIC (Staph. aureus 209-P; [5]): 0.1 µg/mL (≈ 0.185 µM)

CN1CCC[N+]1(C)C/C=C/C1=C(C(=O)[O-])N2C(=O)[C@@H](NC(=O)/C(=N\OCC#N)c3nsc(N)n3)[C@H]2SC1 (single isomer, unassigned) [Example 160-A]
MIC (Escher. coli NIHJ; [2]): ≤ 0.025 µg/mL
MIC (Kleb. pneumoniae EK-6; [8]): ≤ 0.025 µg/mL
MIC [1, 9]: 0.05 µg/mL (≈ 0.0913 µM)
MIC (Pseud. aeruginosa EP-01; [3]): 0.8 µg/mL (≈ 1.46 µM)
MIC (Ser. marcescens ES-75; [10]): 0.1 µg/mL (≈ 0.183 µM)
MIC (Staph. aureus 209-P; [11]): 0.1 µg/mL (≈ 0.183 µM)

CN1CCC[N+]1(C)C/C=C/C1=C(C(=O)[O-])N2C(=O)[C@@H](NC(=O)/C(=N\OCC#N)c3nsc(N)n3)[C@H]2SC1 (single isomer, unassigned) [Example 160-B]
MIC (Escher. coli NIHJ; [6]): 0.05 µg/mL (≈ 0.0913 µM)
MIC (Kleb. pneumoniae EK-6): 0.05 µg/mL (≈ 0.0913 µM)
MIC ([1]; about 10^6 CFU/ml, 18 hours): 0.05 µg/mL (≈ 0.0913 µM)
MIC (Pseud. aeruginosa EP-01; [7]): 0.8 µg/mL (≈ 1.46 µM)
MIC (Ser. marcescens ES-75; [4]): 0.2 µg/mL (≈ 0.365 µM)
MIC (Staph. aureus 209-P; [5]): 0.1 µg/mL (≈ 0.183 µM)

CC(C)(O/N=C(\C(=O)N[C@@H]1C(=O)N2C(C(=O)[O-])=C(C[n+]3ccccc3)CS[C@H]12)c1csc(N)n1)C(=O)O [CAZ, Cefatazidime, reference compound]
MIC (Escher. coli NIHJ; [2]): 0.2 µg/mL (≈ 0.366 µM)
MIC (Kleb. pneumoniae EK-6; [8]): 0.1 µg/mL (≈ 0.183 µM)
MIC [1, 9]: 0.1 µg/mL (≈ 0.183 µM)
MIC (Pseud. aeruginosa EP-01; Pseudomonas aeruginosa, EP01, 18 h): 1.56 µg/mL (≈ 2.85 µM)
MIC (Ser. marcescens ES-75; [12]): 0.2 µg/mL (≈ 0.366 µM)
MIC (Staph. aureus 209-P; [13]): 6.25 µg/mL (≈ 11.4 µM)

CN(C)CCn1nnnc1SCC1=C(C(=O)O)N2C(=O)[C@@H](NC(=O)Cc3csc(N)n3)[C@H]2SC1 [CTM, Cefotiam, reference compound]
MIC (Escher. coli NIHJ; [2]): 0.1 µg/mL (≈ 0.19 µM)
MIC (Kleb. pneumoniae EK-6; [8]): 0.1 µg/mL (≈ 0.19 µM)
MIC [1, 9]: 0.2 µg/mL (≈ 0.38 µM)
MIC (Pseud. aeruginosa EP-01; [3]): > 100 µg/mL
MIC (Ser. marcescens ES-75; [10]): 6.25 µg/mL (≈ 11.9 µM)
MIC (Staph. aureus 209-P; [11]): 0.2 µg/mL (≈ 0.38 µM)

CC[N+](C)(C/C=C/C1=C(C(=O)[O-])N2C(=O)[C@@H](NC(=O)/C(=N\OCF)c3nsc(N)n3)[C@H]2SC1)CC(N)=O (stereo partly drawn) [Example 1, 7β-[2-(5-Amino-1,2,4-thiadiazol-3-yl)-(Z)-2-fluoromethoxyiminoacetamido]-3-[(E)-3-(carbamoylmethylethylmethylammonio)-1-propen-1-yl]-3-cephem-4-carboxylate]
MIC (Escher. coli NIHJ; Escherichia coli, 18 h): ≤ 0.025 µg/mL
MIC (Kleb. pneumoniae EK-6; Klebsiella pneumoniae, EK6, read-out: MIC): ≤ 0.025 µg/mL
MIC ([1]; EP14, about 10^6 CFU/ml, 18 hours, read-out: MIC): ≤ 0.025 µg/mL
MIC (Pseud. aeruginosa EP-01; Pseudomonas aeruginosa, EP01, Pseud. aeruginosa EP-01, agar dilution, about 10^6 CFU/ml, 18 hours, 37° C., read-out: MIC): 0.8 µg/mL (≈ 1.44 µM)
MIC (Ser. marcescens ES-75; [12]): 0.1 µg/mL (≈ 0.18 µM)
MIC (Staph. aureus 209-P; [13]): 0.2 µg/mL (≈ 0.359 µM)

CC(O)C[N+](C)(C)C/C=C/C1=C(C(=O)[O-])N2C(=O)[C@@H](NC(=O)/C(=N\OCF)c3nsc(N)n3)[C@H]2SC1 (stereo partly drawn) [Example 4, 7β-[2-(5-Amino-1,2,4-thiadiazol-3-yl)-(Z)-2-fluoromethoxyiminoacetamido]-3-[(E)-3-[(2-hydroxypropyl)dimethylammonio]-1-propen-1-yl]-3-cephem-4-carboxylate]
MIC (Escher. coli NIHJ; [2]): 0.05 µg/mL (≈ 0.092 µM)
MIC (Kleb. pneumoniae EK-6; [8]): ≤ 0.025 µg/mL
MIC [1, 9]: 0.05 µg/mL (≈ 0.092 µM)
MIC (Pseud. aeruginosa EP-01; [3]): 0.8 µg/mL (≈ 1.47 µM)
MIC (Ser. marcescens ES-75; [10]): 0.1 µg/mL (≈ 0.184 µM)
MIC (Staph. aureus 209-P; [11]): 0.4 µg/mL (≈ 0.736 µM)

C[C@@H](CO)[N+](C)(C)C/C=C/C1=C(C(=O)[O-])N2C(=O)[C@@H](NC(=O)/C(=N\OCC#N)c3nsc(N)n3)[C@H]2SC1 [Example 148]
MIC (Kleb. pneumoniae EK-6; [8]): 0.05 µg/mL (≈ 0.0908 µM)
MIC [1, 9]: 0.1 µg/mL (≈ 0.182 µM)
MIC (Pseud. aeruginosa EP-01; [3]): 1.56 µg/mL (≈ 2.83 µM)
MIC (Ser. marcescens ES-75; [10]): 0.05 µg/mL (≈ 0.0908 µM)
MIC (Staph. aureus 209-P; [11]): 0.4 µg/mL (≈ 0.726 µM)
